Data: patent US20230079819A1, “COMPOUNDS AND USES THEREOF” (Foghorn Therapeutics Inc., priority 2019, published 2023)
pIC50: −log10 of the molar value. Read-outs that look alike come from different tables or passages of the source.

How the values were obtained:
BRG-1 = target: T1, BRG-1 (Homo sapiens, UniProt P51532); experiment: ATPase catalytic activity of BRG-1, ADP-Glo in vitro biochemical assay; conditions: 30 nM BRG-1, 400 μM ATP; for pIC50: read-out: BRG1 IP50; for IC50: read-out: BRG1 IP50 (μM)*
T1 construct: made in house; host or cells: High Five insect cells

BRM = target: T2, BRM (Homo sapiens, UniProt P51531); experiment: ATPase catalytic activity of BRM, ADP-Glo in vitro biochemical assay; conditions: 30 nM BRM, 400 μM ATP; for pIC50: read-out: BRM IP50; for IC50: read-out: BRM IP50 (μM)*
T2 construct: made in house; host or cells: High Five insect cells
T2 sequence (P51531 whole entry): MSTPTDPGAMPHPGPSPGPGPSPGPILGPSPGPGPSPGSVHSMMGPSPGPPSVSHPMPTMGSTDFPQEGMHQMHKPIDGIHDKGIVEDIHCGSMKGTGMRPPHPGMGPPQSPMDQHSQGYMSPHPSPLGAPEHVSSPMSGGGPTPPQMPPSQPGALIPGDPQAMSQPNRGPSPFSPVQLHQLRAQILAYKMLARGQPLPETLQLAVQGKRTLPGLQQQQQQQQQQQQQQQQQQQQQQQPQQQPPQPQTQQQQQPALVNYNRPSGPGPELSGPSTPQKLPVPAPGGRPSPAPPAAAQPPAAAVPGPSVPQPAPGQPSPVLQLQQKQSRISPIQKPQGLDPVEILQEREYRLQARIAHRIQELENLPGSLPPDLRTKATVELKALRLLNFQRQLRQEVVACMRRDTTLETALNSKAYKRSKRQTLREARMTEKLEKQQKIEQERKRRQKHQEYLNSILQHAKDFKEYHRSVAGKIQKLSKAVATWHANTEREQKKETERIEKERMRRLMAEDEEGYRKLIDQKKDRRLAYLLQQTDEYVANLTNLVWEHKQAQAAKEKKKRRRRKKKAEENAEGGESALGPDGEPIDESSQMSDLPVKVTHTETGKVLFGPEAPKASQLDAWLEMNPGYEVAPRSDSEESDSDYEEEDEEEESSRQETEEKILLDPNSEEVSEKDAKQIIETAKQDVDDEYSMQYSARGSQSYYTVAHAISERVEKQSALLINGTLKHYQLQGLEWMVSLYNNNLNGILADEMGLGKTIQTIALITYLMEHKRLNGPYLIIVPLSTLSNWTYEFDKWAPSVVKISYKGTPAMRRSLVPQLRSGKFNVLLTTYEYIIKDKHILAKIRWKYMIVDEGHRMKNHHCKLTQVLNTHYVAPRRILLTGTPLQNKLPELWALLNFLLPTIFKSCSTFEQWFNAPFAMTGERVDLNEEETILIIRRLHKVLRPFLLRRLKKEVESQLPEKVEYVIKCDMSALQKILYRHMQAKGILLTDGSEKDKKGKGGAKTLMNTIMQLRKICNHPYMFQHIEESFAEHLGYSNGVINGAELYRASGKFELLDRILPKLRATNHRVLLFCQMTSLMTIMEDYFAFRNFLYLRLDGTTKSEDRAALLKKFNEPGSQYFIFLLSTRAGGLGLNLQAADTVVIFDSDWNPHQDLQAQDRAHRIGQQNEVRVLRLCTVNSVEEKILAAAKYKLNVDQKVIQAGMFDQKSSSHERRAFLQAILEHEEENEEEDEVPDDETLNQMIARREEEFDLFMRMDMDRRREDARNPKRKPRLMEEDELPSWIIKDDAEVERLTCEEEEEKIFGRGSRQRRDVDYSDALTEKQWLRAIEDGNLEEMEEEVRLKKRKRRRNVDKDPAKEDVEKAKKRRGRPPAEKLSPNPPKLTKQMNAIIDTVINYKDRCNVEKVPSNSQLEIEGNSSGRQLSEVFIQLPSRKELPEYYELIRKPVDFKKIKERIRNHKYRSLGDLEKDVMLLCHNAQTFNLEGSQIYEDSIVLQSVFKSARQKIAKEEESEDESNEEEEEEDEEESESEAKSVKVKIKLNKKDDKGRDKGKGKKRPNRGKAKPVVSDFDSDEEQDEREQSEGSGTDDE

T1 sequence (P51532 whole entry): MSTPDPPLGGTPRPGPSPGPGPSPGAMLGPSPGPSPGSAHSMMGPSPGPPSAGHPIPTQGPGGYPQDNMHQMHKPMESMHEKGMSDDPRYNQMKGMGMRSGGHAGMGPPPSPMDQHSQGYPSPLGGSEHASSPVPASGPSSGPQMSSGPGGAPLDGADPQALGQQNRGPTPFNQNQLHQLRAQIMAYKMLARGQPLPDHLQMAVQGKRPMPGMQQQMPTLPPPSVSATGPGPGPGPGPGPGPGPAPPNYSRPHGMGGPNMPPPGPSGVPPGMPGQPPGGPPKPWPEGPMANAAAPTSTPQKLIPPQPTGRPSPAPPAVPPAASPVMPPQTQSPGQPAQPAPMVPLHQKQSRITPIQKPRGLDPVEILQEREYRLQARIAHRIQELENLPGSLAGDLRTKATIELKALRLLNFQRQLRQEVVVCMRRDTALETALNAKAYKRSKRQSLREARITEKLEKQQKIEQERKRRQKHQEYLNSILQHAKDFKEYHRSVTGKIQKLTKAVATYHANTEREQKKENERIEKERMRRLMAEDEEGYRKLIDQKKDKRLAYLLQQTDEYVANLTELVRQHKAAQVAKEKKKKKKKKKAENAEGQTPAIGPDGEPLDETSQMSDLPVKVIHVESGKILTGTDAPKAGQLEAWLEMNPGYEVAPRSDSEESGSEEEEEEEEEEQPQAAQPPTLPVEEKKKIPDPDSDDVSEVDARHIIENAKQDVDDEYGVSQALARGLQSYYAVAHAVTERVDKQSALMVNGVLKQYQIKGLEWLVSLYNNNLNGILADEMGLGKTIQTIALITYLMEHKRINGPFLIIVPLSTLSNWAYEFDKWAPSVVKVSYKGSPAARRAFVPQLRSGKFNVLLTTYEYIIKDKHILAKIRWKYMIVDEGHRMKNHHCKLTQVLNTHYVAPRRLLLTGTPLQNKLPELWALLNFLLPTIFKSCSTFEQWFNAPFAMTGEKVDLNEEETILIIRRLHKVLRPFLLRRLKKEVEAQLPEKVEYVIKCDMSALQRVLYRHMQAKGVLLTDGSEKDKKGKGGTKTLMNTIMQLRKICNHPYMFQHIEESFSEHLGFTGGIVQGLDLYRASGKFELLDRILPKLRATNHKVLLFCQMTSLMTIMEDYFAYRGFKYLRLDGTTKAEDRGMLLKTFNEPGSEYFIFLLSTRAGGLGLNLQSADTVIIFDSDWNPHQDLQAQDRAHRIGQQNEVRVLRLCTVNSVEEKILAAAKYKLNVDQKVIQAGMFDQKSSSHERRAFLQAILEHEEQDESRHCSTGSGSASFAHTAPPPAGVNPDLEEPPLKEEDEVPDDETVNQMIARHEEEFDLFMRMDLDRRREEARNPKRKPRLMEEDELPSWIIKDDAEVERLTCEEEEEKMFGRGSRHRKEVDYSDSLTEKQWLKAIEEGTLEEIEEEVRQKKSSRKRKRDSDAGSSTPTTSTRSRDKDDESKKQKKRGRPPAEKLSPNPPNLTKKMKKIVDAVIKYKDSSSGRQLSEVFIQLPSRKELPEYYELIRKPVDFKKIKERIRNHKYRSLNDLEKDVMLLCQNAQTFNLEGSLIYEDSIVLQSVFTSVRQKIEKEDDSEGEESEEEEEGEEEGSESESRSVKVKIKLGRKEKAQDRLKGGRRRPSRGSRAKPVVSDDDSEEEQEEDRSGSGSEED

| pIC50 (BRG-1; ATPase catalytic activity) | pIC50 (BRM; ATPase catalytic activity) | IC50 (BRG-1; ATPase catalytic activity) | IC50 (BRM; ATPase catalytic activity) | Compound | also measured |
| --- | --- | --- | --- | --- | --- |
| > 8.00 | > 8.00 | – | – | COC[C@H](NC(=O)c1ccn(C2(C)COC2)c1)C(=O)Nc1nc(-c2cc(F)c3ccn(C)c(=O)c3c2)cs1 [Compound 564] | – |
| – | – | > 0.01 µM | > 0.01 µM | CN1CCOc2ccc(-c3csc(NC(=O)CNC(=O)c4ccn(C(C)(C)C)c4)n3)cc21 [Compound 283] | – |
| < 8.00 | < 8.00 | – | – | CS(=O)(=O)n1ccc(C(=O)NCC(=O)Nc2nc(-c3cc(Cl)c4c(c3)OCO4)cs2)c1 [Compound 607] | – |
| > 8.00 | > 8.00 | – | – | Cn1ccc2ccc(-c3csc(NC(=O)CNC(=O)c4ccn(C5(C#N)CC5)c4)n3)cc2c1=O [Compound 475] | – |
| < 8.00 | > 8.00 | – | – | COC[C@H](NC(=O)c1ccn(S(C)(=O)=O)c1)C(=O)Nc1nc(-c2ccc(F)c(N3CCC3)c2)cs1 [Compound 549] | – |
| < 7.00 | < 8.00 | – | – | N#CC1(n2ccc(C(=O)NCC(=O)Nc3nc(-c4cccc(OC5CC5)c4)cs3)c2)CC1 [Compound 554, 1-(1-cyanocyclopropyl)-N-[2-[[4-[3-(cyclopropoxy)phenyl]thiazol-2-yl]amino]-2-oxo-ethyl]pyrrole-3-carboxamide] | – |
| < 7.00 | < 8.00 | – | – | CS(=O)(=O)n1ccc(C(=O)NCC(=O)Nc2nc(-c3cccc([C@@H]4CCCOC4)c3)cs2)c1 [Compound 419, 1-methylsulfonyl-N-[2-oxo-2-[[4-[3-[(3S)-tetrahydropyran-3-yl]phenyl]thiazol-2-yl]amino]ethyl]pyrrole-3-carboxamide] | – |
| – | – | > 0.01 µM | < 0.01 µM | CS(=O)(=O)n1ccc(C(=O)NCC(=O)Nc2nc(-c3cccc(OCc4ccncc4)n3)cs2)c1 [Compound 147] | – |
| < 7.00 | < 7.00 | – | – | CN(C)[C@H]1CCN(c2cccc(-c3csc(NC(=O)CNC(=O)c4ccn(S(C)(=O)=O)c4)n3)n2)CC1(F)F [Compound 757] | – |
| – | – | > 0.01 µM | > 0.01 µM | CS(=O)(=O)n1ccc(C(=O)NCC(=O)Nc2nc(-c3cccc(OC4CC4)c3)cs2)c1 [Compound 265] | – |
| < 8.00 | < 8.00 | – | – | CS(=O)(=O)n1ccc(C(=O)NCC(=O)Nc2nc(-c3cccc(C4COC4)c3)cs2)c1 [Compound 465] | – |
| – | – | > 0.01 µM | > 0.01 µM | CS(=O)(=O)n1ccc(C(=O)NCC(=O)Nc2nc(-c3cccc(N4CCCC4)c3)cs2)c1 [Compound 231] | – |
| – | – | > 0.01 µM | > 0.01 µM | CS(=O)(=O)n1ccc(C(=O)NCC(=O)Nc2nc(-c3cccc(N4CCC[C@@H](C#N)C4)c3)cs2)c1 [Compound 211] | – |
| < 8.00 | > 8.00 | – | – | Cc1cccc(-c2cccc(-c3csc(NC(=O)CNC(=O)c4ccn(C(C)(C)C)c4)n3)c2)n1 [Compound 417] | – |
| – | – | – | – | COC[C@H](NC(=O)c1ncc(C(C)(C)C)o1)C(=O)Nc1nc(-c2cc(F)cc(-c3cnn(C)n3)c2)cs1 [Compound 825] | pIC50 (BRG-1): < 8.00; pIC50 (BRM): > 8.00 |
| – | – | > 0.01 µM | > 0.01 µM | CS(=O)(=O)n1ccc(C(=O)NCC(=O)Nc2nc(-c3ccc4c(c3F)OCC4)cs2)c1 [Compound 264] | – |
| – | – | < 0.01 µM | < 0.01 µM | C[C@H]1CN(c2cccc(-c3csc(NC(=O)CNC(=O)c4ccn(S(C)(=O)=O)c4)n3)c2)CCO1 [Compound 87, (S)—N-(2-((4-(3-(2-methylmorpholino)phenyl)thiazol-2-yl)amino)-2-oxoethyl)-1-(methylsulfonyl)-1H-pyrrole-3-carboxamide] | – |
| – | – | > 0.01 µM | > 0.01 µM | CS(=O)(=O)n1ccc(C(=O)NCC(=O)Nc2nc(-c3cccc(N4C[C@H]5C[C@H]5C4)c3)cs2)c1 [Compound 207] | – |
| < 8.00 | < 8.00 | – | – | CC(C)(C)n1ccc(C(=O)NCC(=O)Nc2nc(-c3cccc(N4CCCC(N5CCCC5)C4)n3)cs2)c1 (stereo not drawn) [Compound 636] | – |
| < 7.00 | < 8.00 | – | – | COC[C@H](NC(=O)c1ccn(S(C)(=O)=O)c1)C(=O)Nc1nc(-c2ccc(F)c(OC3CC3)c2)cs1 [Compound 545] | – |
| – | – | – | – | COC[C@H](NC(=O)c1ccn(C(C)(C)C#N)n1)C(=O)Nc1nc(-c2ccc3ccn(C)c(=O)c3c2)cs1 [Compound 816] | pIC50 (BRG-1): < 8.00; pIC50 (BRM): < 8.00 |
